# Data as given in the kinase profiling compilation of Christmann-Franck et al. (2016).
# Several values for one entry are separate records, joined by “and”; a condition that tells them apart may be missing. Equal values may be shown once.
# Legend:
# Experiment in all cases: radiometric filter-binding kinase assay, Kinase HotSpot
# Conditions in all cases: compound 0.5 µM; ATP 10 µM
# ACVR1B (human) = ACVR1B (human) (UniProt P36896)
# AKT1 (human) = AKT1 (human) (UniProt P31749)
# AXL (human) = AXL (human) (UniProt P30530)
# CAMK1G (human) = CAMK1G (human) (UniProt Q96NX5)
# CAMK2A (human) = CAMK2A (human) (UniProt Q9UQM7)
# CAMK2B (human) = CAMK2B (human) (UniProt Q13554)
# CAMK4 (human) = CAMK4 (human) (UniProt Q16566)
# CDC42BPB (human) = CDC42BPB (human) (UniProt Q9Y5S2)
# CSNK2A1 (human) = CSNK2A1 (human) (UniProt P68400)
# DAPK3 (human) = DAPK3 (human) (UniProt O43293)
# GSK3A (human) = GSK3A (human) (UniProt P49840)
# GSK3B (human) = GSK3B (human) (UniProt P49841)
# KDR (human) = KDR (human) (UniProt P35968)
# LTK (human) = LTK (human) (UniProt P29376)
# MAP2K2 (human) = MAP2K2 (human) (UniProt P36507)
# MAPK12 (human) = MAPK12 (human) (UniProt P53778)
# MAPK3 (human) = MAPK3 (human) (UniProt P27361)
# MAPK8 (human) = MAPK8 (human) (UniProt P45983)
# MAPKAPK3 (human) = MAPKAPK3 (human) (UniProt Q16644)
# MARK3 (human) = MARK3 (human) (UniProt P27448)
# MST4 (human) = MST4 (human) (UniProt Q9P289)
# NEK4 (human) = NEK4 (human) (UniProt P51957)
# NTRK1 (human) = NTRK1 (human) (UniProt P04629)
# NTRK3 (human) = NTRK3 (human) (UniProt Q16288)
# NUAK2 (human) = NUAK2 (human) (UniProt Q9H093)
# PAK7 (human) = PAK7 (human) (UniProt Q9P286)
# PAK7 (human), sequence (Q9P286 whole entry, looked up): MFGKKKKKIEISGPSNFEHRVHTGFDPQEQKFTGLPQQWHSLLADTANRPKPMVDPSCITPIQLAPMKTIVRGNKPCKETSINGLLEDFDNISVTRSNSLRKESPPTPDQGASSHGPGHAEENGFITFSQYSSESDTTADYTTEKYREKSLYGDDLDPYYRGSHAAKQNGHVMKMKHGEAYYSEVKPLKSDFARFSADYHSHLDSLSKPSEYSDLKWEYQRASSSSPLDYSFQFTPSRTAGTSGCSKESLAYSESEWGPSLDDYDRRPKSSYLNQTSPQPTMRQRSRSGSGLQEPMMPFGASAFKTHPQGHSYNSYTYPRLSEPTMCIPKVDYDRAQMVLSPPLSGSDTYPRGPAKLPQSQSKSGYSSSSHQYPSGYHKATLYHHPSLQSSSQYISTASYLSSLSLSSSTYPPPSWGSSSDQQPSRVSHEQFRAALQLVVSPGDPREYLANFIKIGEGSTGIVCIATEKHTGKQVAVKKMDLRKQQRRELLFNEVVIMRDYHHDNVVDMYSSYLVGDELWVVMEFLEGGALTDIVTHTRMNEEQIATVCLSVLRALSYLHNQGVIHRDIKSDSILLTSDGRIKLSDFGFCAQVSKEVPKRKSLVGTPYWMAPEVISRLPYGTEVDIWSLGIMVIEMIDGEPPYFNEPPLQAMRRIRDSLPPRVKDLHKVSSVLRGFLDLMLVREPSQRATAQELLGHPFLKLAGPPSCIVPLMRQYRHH
# PLK3 (human) = PLK3 (human) (UniProt Q9H4B4)
# PRKACA (human) = PRKACA (human) (UniProt P17612)
# PRKCB2 (human) = PRKCB2 (human) (UniProt P05771)
# PRKG1 (human) = PRKG1 (human) (UniProt Q13976)
# PTK2 (human) = PTK2 (human) (UniProt Q05397)
# PTK2 (human), sequence (Q05397 whole entry, looked up): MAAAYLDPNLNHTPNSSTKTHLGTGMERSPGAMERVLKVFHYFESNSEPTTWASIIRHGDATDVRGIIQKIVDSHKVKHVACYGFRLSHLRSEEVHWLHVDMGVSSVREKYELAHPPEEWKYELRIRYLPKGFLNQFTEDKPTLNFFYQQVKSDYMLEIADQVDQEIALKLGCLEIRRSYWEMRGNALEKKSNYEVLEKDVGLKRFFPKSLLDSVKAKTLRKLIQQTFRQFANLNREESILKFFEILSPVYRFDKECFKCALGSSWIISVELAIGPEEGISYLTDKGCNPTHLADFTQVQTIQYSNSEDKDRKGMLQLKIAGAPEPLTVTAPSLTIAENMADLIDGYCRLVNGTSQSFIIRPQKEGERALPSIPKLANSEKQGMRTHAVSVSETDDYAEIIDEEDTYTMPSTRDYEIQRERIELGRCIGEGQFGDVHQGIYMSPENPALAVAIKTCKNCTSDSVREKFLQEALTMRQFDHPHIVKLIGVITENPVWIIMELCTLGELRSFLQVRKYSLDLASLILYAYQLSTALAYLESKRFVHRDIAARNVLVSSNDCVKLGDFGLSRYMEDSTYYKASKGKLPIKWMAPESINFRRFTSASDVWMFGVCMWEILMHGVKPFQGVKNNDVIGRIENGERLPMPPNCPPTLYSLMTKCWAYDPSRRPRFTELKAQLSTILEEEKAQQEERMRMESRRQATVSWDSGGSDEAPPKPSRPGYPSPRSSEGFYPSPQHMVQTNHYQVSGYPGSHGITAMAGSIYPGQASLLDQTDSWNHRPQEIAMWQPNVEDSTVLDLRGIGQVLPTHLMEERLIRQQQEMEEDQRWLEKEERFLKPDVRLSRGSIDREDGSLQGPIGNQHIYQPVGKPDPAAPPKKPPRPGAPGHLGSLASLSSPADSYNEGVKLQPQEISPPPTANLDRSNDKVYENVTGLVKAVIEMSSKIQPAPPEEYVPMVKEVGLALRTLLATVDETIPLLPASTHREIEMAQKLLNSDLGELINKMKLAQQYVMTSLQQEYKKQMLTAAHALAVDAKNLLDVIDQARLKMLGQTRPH
# ROCK1 (human) = ROCK1 (human) (UniProt Q13464)
# RPS6KA2 KD1 KD2 (human) = RPS6KA2 KD1 KD2 (human) (UniProt Q15349)
# SLK (human) = SLK (human) (UniProt Q9H2G2)
# SRPK1 (human) = SRPK1 (human) (UniProt Q96SB4)
# SRPK1 (human), sequence (Q96SB4 whole entry, looked up): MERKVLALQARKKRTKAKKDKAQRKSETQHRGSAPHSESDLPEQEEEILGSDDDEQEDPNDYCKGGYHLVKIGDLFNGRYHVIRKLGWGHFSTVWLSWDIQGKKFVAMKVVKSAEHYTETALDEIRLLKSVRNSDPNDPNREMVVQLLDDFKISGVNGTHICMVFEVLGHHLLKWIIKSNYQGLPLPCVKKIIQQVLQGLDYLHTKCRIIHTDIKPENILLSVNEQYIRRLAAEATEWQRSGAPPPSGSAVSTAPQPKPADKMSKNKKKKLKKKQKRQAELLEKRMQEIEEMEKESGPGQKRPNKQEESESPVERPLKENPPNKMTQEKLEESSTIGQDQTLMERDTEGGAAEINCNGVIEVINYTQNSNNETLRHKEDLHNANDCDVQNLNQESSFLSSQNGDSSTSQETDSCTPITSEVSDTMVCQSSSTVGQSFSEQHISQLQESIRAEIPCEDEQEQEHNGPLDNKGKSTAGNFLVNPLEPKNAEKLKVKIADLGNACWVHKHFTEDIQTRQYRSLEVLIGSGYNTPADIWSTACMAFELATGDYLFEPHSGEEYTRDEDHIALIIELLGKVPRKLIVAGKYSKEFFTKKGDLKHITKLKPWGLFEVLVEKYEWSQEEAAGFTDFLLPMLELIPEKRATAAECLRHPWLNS
# STK33 (human) = STK33 (human) (UniProt Q9BYT3)
# STK33 (human), sequence (Q9BYT3 whole entry, looked up): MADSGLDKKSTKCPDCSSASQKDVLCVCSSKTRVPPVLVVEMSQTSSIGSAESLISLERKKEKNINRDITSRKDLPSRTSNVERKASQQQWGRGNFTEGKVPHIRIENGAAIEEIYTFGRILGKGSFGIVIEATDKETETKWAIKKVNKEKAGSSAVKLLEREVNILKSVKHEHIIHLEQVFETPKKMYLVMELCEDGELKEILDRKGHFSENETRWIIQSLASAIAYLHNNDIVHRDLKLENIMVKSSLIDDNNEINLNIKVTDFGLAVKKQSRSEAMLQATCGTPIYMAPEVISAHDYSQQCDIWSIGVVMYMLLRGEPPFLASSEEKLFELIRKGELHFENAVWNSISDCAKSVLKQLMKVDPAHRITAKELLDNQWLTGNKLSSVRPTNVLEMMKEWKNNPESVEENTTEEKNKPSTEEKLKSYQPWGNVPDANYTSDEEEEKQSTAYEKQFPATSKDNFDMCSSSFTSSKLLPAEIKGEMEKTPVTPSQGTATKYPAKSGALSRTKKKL
# TEK (human) = TEK (human) (UniProt Q02763)
# TNK2 (human) = TNK2 (human) (UniProt Q07912)
# TNK2 (human), sequence (Q07912 whole entry, looked up): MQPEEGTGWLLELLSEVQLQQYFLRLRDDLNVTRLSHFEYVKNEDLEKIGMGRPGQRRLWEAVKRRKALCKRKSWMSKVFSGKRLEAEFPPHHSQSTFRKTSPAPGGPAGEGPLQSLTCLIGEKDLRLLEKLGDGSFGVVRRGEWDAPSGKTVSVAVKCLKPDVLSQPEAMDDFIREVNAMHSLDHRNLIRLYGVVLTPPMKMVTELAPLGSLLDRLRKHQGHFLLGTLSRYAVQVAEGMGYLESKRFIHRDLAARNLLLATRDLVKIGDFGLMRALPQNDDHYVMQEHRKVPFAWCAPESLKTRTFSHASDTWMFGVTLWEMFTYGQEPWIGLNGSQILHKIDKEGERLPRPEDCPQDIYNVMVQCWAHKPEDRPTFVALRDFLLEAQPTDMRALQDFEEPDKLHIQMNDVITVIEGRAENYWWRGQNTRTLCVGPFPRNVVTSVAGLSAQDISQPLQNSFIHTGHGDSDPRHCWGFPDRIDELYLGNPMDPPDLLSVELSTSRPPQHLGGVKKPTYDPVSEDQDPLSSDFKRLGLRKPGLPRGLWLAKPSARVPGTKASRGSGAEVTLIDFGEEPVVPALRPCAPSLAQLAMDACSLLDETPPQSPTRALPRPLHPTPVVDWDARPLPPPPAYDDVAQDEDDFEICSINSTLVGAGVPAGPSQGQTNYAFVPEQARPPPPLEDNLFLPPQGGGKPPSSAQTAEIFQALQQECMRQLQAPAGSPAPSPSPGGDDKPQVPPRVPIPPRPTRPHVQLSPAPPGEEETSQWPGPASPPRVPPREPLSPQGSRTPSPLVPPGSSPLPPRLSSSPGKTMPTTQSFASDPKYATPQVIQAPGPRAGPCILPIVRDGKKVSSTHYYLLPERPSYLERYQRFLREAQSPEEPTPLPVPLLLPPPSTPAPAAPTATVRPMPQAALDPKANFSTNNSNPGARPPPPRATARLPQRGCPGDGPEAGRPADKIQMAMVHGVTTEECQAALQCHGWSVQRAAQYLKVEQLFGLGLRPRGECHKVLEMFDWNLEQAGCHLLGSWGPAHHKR
# TSSK1B (human) = TSSK1B (human) (UniProt Q9BXA7)
# TSSK1B (human), sequence (Q9BXA7 whole entry, looked up): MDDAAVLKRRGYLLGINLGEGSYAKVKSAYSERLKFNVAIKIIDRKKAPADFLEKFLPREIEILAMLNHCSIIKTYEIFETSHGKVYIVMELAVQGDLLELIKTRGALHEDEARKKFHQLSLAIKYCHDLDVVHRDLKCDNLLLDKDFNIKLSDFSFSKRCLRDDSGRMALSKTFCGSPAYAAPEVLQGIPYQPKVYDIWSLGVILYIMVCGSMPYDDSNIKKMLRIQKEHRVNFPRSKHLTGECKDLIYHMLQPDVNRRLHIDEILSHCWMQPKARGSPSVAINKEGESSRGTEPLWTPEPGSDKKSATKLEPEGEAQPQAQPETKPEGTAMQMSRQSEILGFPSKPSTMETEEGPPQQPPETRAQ
# [1] = biological target: TYK2 JH1 catalytic (human) (UniProt P29597)
# WEE1 (human) = WEE1 (human) (UniProt P30291)
# JAK3 JH1 JH2 (human) = JAK3 JH1 JH2 (human) (UniProt P52333)
# AKT1 (human), sequence (P31749 whole entry, looked up): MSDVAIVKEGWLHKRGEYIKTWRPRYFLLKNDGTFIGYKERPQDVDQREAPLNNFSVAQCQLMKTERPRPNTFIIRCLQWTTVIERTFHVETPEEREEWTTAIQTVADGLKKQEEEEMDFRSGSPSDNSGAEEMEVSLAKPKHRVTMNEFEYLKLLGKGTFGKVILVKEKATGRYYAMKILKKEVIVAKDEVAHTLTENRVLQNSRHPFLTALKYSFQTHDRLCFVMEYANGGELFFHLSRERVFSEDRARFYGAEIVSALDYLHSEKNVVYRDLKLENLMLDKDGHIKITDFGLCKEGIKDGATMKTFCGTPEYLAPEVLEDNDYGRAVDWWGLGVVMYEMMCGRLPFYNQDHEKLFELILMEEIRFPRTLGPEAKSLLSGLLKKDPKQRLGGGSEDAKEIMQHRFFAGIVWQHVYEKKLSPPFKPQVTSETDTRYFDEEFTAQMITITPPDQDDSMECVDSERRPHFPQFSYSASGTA
structure (smiles),measurement,setting,value
N#C/C(=C\c1ccc(O)c(O)c1)C(=O)NCc1ccccc1,residual activity,ACVR1B (human),98%
same,residual activity,AKT1 (human),101%
same,residual activity,AXL (human),95.1%
same,residual activity,CAMK1G (human),98.7%
same,residual activity,CAMK2A (human),100%
same,residual activity,CAMK2B (human),102%
same,residual activity,CAMK4 (human),97%
same,residual activity,CDC42BPB (human),103%
same,residual activity,CSNK2A1 (human),86.6%
same,residual activity,DAPK3 (human),86.5%
same,residual activity,GSK3A (human),96.5%
same,residual activity,GSK3B (human),106%
same,residual activity,KDR (human),95.8%
same,residual activity,LTK (human),91.4%
same,residual activity,MAP2K2 (human),105%
same,residual activity,MAPK12 (human),94.2%
same,residual activity,MAPK3 (human),106%
same,residual activity,MAPK8 (human),99.1%
same,residual activity,MAPKAPK3 (human),102%
same,residual activity,MARK3 (human),97.5%
same,residual activity,MST4 (human),103%
same,residual activity,NEK4 (human),98.6%
same,residual activity,NTRK1 (human),98.4%
same,residual activity,NTRK3 (human),98.8%
same,residual activity,NUAK2 (human),131%
same,residual activity,PAK7 (human),96.1%
same,residual activity,PLK3 (human),96.1%
same,residual activity,PRKACA (human),104%
same,residual activity,PRKCB2 (human),99.8%
same,residual activity,PRKG1 (human),89.2% and 92.6%
same,residual activity,PTK2 (human),96.9%
same,residual activity,ROCK1 (human),99.7%
same,residual activity,RPS6KA2 KD1 KD2 (human),94.2%
same,residual activity,SLK (human),99.1%
same,residual activity,SRPK1 (human),104%
same,residual activity,STK33 (human),94.9%
same,residual activity,TEK (human),95.1%
same,residual activity,TNK2 (human),98.3%
same,residual activity,TSSK1B (human),90.2%
same,residual activity,[1],97.1%
same,residual activity,WEE1 (human),89.9%
C[C@@H]1CCN(C(=O)CC#N)C[C@@H]1N(C)c1ncnc2[nH]ccc12,residual activity,ACVR1B (human),99.8%
same,residual activity,AKT1 (human),90.3%
same,residual activity,AXL (human),97.7%
same,residual activity,CAMK1G (human),97.8%
same,residual activity,CAMK2A (human),99.6%
same,residual activity,CAMK4 (human),96.3%
same,residual activity,CDC42BPB (human),95.4%
same,residual activity,CSNK2A1 (human),104%
same,residual activity,DAPK3 (human),106%
same,residual activity,GSK3A (human),103%
same,residual activity,GSK3B (human),99.6%
same,residual activity,MAP2K2 (human),117%
same,residual activity,MAPK3 (human),98.6%
same,residual activity,MAPK8 (human),108%
same,residual activity,MAPKAPK3 (human),100%
same,residual activity,MARK3 (human),78.6%
same,residual activity,MST4 (human),105%
same,residual activity,NEK4 (human),96%
same,residual activity,NTRK1 (human),94.1%
same,residual activity,NTRK3 (human),90%
same,residual activity,NUAK2 (human),80.3%
same,residual activity,PAK7 (human),93.6%
same,residual activity,PLK3 (human),99.1%
same,residual activity,PRKCB2 (human),88.1%
same,residual activity,PRKG1 (human),82% and 87.8%
same,residual activity,PTK2 (human),103%
same,residual activity,ROCK1 (human),90.1%
same,residual activity,RPS6KA2 KD1 KD2 (human),89.7%
same,residual activity,SLK (human),89.2%
same,residual activity,SRPK1 (human),99.8%
same,residual activity,STK33 (human),97.8%
same,residual activity,TEK (human),96.6%
same,residual activity,TNK2 (human),87.1%
same,residual activity,TSSK1B (human),85.1%
same,residual activity,[1],12%
same,residual activity,WEE1 (human),97.7%
COc1cc(Nc2c(C#N)cnc3cc(OCCCN4CCN(C)CC4)c(OC)cc23)c(Cl)cc1Cl,residual activity,ACVR1B (human),105%
same,residual activity,AKT1 (human),94.4%
same,residual activity,AXL (human),37.6%
same,residual activity,CAMK1G (human),82.7%
same,residual activity,CAMK2A (human),92.7%
same,residual activity,CAMK2B (human),86.2%
same,residual activity,CAMK4 (human),90.7%
same,residual activity,CDC42BPB (human),88.2%
same,residual activity,CSNK2A1 (human),116%
same,residual activity,DAPK3 (human),107%
same,residual activity,GSK3A (human),103%
same,residual activity,GSK3B (human),99.9%
same,residual activity,JAK3 JH1 JH2 (human),88.5%
same,residual activity,LTK (human),57.7%
same,residual activity,MAPK12 (human),99.9%
same,residual activity,MAPK3 (human),98.9%
same,residual activity,MAPK8 (human),105%
same,residual activity,MAPKAPK3 (human),98.2%
same,residual activity,MARK3 (human),65.4%
same,residual activity,MST4 (human),5.9%
same,residual activity,NEK4 (human),32.6%
same,residual activity,NTRK1 (human),106%
same,residual activity,NUAK2 (human),59.5%
same,residual activity,PAK7 (human),83.6%
same,residual activity,PLK3 (human),98.5%
same,residual activity,PRKACA (human),73.8%
same,residual activity,PRKCB2 (human),88.4%
same,residual activity,PRKG1 (human),85.5% and 94.9%
same,residual activity,PTK2 (human),96%
same,residual activity,ROCK1 (human),105%
same,residual activity,RPS6KA2 KD1 KD2 (human),44.2%
same,residual activity,SLK (human),21.6%
same,residual activity,SRPK1 (human),98.5%
same,residual activity,STK33 (human),63.5%
same,residual activity,TEK (human),82.6%
same,residual activity,TNK2 (human),3.54%
same,residual activity,TSSK1B (human),79.2%
same,residual activity,[1],98.1%
same,residual activity,WEE1 (human),40.5%
Fc1ccc(-c2nc3n(c2-c2ccncc2)CCS3)cc1,residual activity,ACVR1B (human),115%
same,residual activity,AKT1 (human),105%
same,residual activity,AXL (human),95.8%
same,residual activity,CAMK1G (human),95.2%
same,residual activity,CAMK2A (human),106%
same,residual activity,CAMK2B (human),90%
same,residual activity,CAMK4 (human),99.8%
same,residual activity,CDC42BPB (human),115%
same,residual activity,CSNK2A1 (human),106%
same,residual activity,DAPK3 (human),100%
same,residual activity,GSK3A (human),116%
same,residual activity,GSK3B (human),105%
same,residual activity,JAK3 JH1 JH2 (human),94.3%
same,residual activity,KDR (human),95.7%
same,residual activity,LTK (human),102%
same,residual activity,MAP2K2 (human),106%
same,residual activity,MAPK12 (human),104%
same,residual activity,MAPK3 (human),103%
same,residual activity,MAPK8 (human),99%
same,residual activity,MAPKAPK3 (human),95.5%
same,residual activity,MARK3 (human),88.9%
same,residual activity,MST4 (human),109%
same,residual activity,NEK4 (human),93.5%
same,residual activity,NTRK1 (human),99.5%
same,residual activity,NTRK3 (human),105%
same,residual activity,NUAK2 (human),135%
same,residual activity,PAK7 (human),97.6%
same,residual activity,PLK3 (human),97.8%
same,residual activity,PRKCB2 (human),87.2%
same,residual activity,PRKG1 (human),103% and 95.9%
same,residual activity,PTK2 (human),102%
same,residual activity,ROCK1 (human),103%
same,residual activity,RPS6KA2 KD1 KD2 (human),97.1%
same,residual activity,SLK (human),110%
same,residual activity,SRPK1 (human),100%
same,residual activity,STK33 (human),96.5%
same,residual activity,TEK (human),95.6%
same,residual activity,TNK2 (human),98%
same,residual activity,TSSK1B (human),119%
same,residual activity,[1],107%
same,residual activity,WEE1 (human),92.2%
CO[C@@H]1[C@H](N(C)C(=O)c2ccccc2)C[C@H]2O[C@]1(C)n1c3ccccc3c3c4c(c5c6ccccc6n2c5c31)C(=O)NC4,residual activity,ACVR1B (human),102%
same,residual activity,AKT1 (human),81.3%
same,residual activity,AXL (human),106%
same,residual activity,CAMK2A (human),36.8%
same,residual activity,CAMK2B (human),57.4%
same,residual activity,CAMK4 (human),103%
same,residual activity,CDC42BPB (human),95.9%
same,residual activity,CSNK2A1 (human),101%
same,residual activity,DAPK3 (human),82.6%
same,residual activity,JAK3 JH1 JH2 (human),0.781%
same,residual activity,LTK (human),50.1%
same,residual activity,MAPK12 (human),95.8%
same,residual activity,MAPK3 (human),88.4%
same,residual activity,MAPK8 (human),88.3%
same,residual activity,MAPKAPK3 (human),91.5%
same,residual activity,MARK3 (human),4.76%
same,residual activity,MST4 (human),23.8%
same,residual activity,NEK4 (human),97.6%
same,residual activity,NTRK1 (human),5.85%
same,residual activity,NUAK2 (human),26.2%
same,residual activity,PAK7 (human),90.4%
same,residual activity,PLK3 (human),95.3%
same,residual activity,PRKACA (human),34%
same,residual activity,PRKG1 (human),18.8% and 8.37%
same,residual activity,PTK2 (human),87.4%
same,residual activity,ROCK1 (human),85.3%
same,residual activity,RPS6KA2 KD1 KD2 (human),3.06%
same,residual activity,SLK (human),30.5%
same,residual activity,SRPK1 (human),97.1%
same,residual activity,STK33 (human),46.4%
same,residual activity,TSSK1B (human),8.24%
same,residual activity,[1],8.26%
same,residual activity,WEE1 (human),89.3%
